The record followed here is ChEMBL document CHEMBL4017458, “Discovery of selective, orally bioavailable, N-linked arylsulfonamide Nav1.7 inhibitors with pain efficacy in mice” (Bioorg Med Chem Lett, 2017).

In one series the test system is Rattus norvegicus. The series is described as follows: Intrinsic clearance in rat at 0.05 mg/kg, iv administered in cassette format or 2 mg/kg, iv administered as single dose or 10 mg/kg, po. The settings on record: in vivo. The class given is ADME, organism-based.
A short description of series [1]: Oral bioavailability in rat at 10 mg/kg. The class given is ADME, organism-based. The settings on record: in vivo.
Series [2] in a line: Lipophilicity, log D of compound by HPLC analysis. It counts as physicochemical.
A short description of series [3]: Kinetic solubility of the compound at pH 2 by HPLC analysis. The conditions noted are these: buffer, read-out: Kinetic_solubility. The class given is physicochemical.
A short description of series [4]: Tmax in po dosed C57BL/6 mouse. It counts as ADME, organism-based. The settings on record: in vivo.
A short description of series [5]: Kinetic solubility of the compound at pH 7 by HPLC analysis. It counts as physicochemical. The conditions noted are these: buffer, read-out: Kinetic_solubility.
In series [6] the test system is Plasma. The series can be described thus: Plasma concentration in C57BL/6 mouse at 1 to 10 mg/kg, po. The class given is ADME, organism-based. The settings on record: in vivo.
The subject of series [7] is Plasma. The series can be described thus: Plasma concentration in C57BL/6 mouse at 3 to 30 mg/kg, po. The class given is ADME, organism-based. The conditions noted are these: in vivo.
Series [8] can be described thus: Drug uptake in CSF of C57BL/6 mouse at 30 mg/kg, po. The class given is ADME, organism-based, Cerebrospinal fluid. The settings on record: in vivo.
The test system of another series is Brain. The series is described as follows: Drug uptake in C57BL/6 mouse brain at 30 mg/kg, po. The class given is ADME, organism-based. The conditions noted are these: in vivo.

Molecules are shown by their SMILES. ≈ marks a conversion by molar mass, not a printed value.

As a reminder, the bioavailability is dose-corrected exposure relative to a reference, in per cent. A higher bioavailability goes with much systemic uptake. For orientation: logD means lipophilicity at a set pH, counting ionised and neutral species. Higher therefore signals a more lipophilic compound. In the series on Rattus norvegicus, `O=S(=O)(Nc1ncc(Cl)s1)c1cc(Cl)c(NCC23CCCN2CCC3)cc1F` returned a CL of 46.8 L/h/kg. Further, in series [1], the bioavailability was 45%. This compound also came in with a logD in series [2] of 1.3.

On to `O=S(=O)(Nc1ncc(F)s1)c1cc(Cl)c(NCC23CCCN2CCC3)cc1F`, for which the CL in the series on Rattus norvegicus was found to be 13.8 L/h/kg. The same compound showed a bioavailability in series [1] of 55%. The compound further had a logD in series [2] of 1.

With `O=S(=O)(Nc1nccs1)c1cc(Cl)c(NCC23CCCCN2CCCC3)cc1F`, in the series on Rattus norvegicus, the CL stood at 180 L/h/kg. Besides, the logD in series [2] is 2.2.

In turn, `O=S(=O)(Nc1cscn1)c1cc(Cl)c(NCC23CCCN2CCC3)cc1F` returned a logD in series [2] of 0.7.

Regarding `O=S(=O)(Nc1ncns1)c1cc(F)c(NCC23CCCN2CCC3)cc1F`, the CL in the series with Rattus norvegicus amounted to 3.72 L/h/kg. Besides, the bioavailability in series [1] was determined as 4%. Besides, the log distribution coefficient (logD) in series [2] was 0.

In the series on Rattus norvegicus, `O=S(=O)(Nc1ncns1)c1cc(Cl)c(NCC23CCCN2CCC3)cc1F` yielded a CL of 39.6 L/h/kg. The log distribution coefficient (logD) in series [2] worked out at 0.4.

As to `CC1(C)CN2CCC[C@@]2(CNc2cc(F)c(S(=O)(=O)Nc3nccs3)cc2Cl)C1`, in the series with Rattus norvegicus, the CL is 51 L/h/kg. The bioavailability in [1] is 45%. Also, in [2], the pH-dependent lipophilicity (logD) came to 1.7.

Regarding `O=S(=O)(Nc1nccs1)c1cc(Cl)c(NCCC23CCCN2CCC3)cc1F`, in the series with Rattus norvegicus, the CL is 96 L/h/kg. The same compound showed a bioavailability in [1] of 30%. Moreover, the logD in [2] was 0.6.

Take `O=S(=O)(Nc1nccs1)c1cc(Cl)c(NC[C@]23CCCN2C[C@@H](F)C3)cc1F`: the CL in the series on Rattus norvegicus worked out at 48.6 L/h/kg. This compound registered a bioavailability in [1] of 57%. The compound also showed a pH-dependent lipophilicity (logD) in [2] of 1.5.

As to `O=S(=O)(Nc1nccs1)c1cc(Cl)c(NCC23CCCN2CC(F)(F)C3)cc1F` (configuration not stated), the pH-dependent lipophilicity (logD) in series [2] came to 1.7.

What is called Tmax is the time at which the peak concentration occurs. On to `CC1(C)CN2CCC[C@]2(CNc2cc(F)c(S(=O)(=O)Nc3nccs3)cc2Cl)C1`, for which the CL with Rattus norvegicus is 27.6 L/h/kg. The solubility kinetic in [3] was found to be 143 µM (≈ 65.6 µg/mL); in series [5], 28 µM (≈ 12.9 µg/mL). For the same compound, the Tmax in series [4] came to 3 h. The compound also yielded a bioavailability in series [1] of 61%. In [2], this compound displayed a log distribution coefficient (logD) of 1.7. Further, the concentration in the series with Plasma [6] worked out at 0.25 µM.

For `O=S(=O)(Nc1ccncn1)c1cc(Cl)c(NCC23CCCN2CCC3)cc1F`, the CL in the series with Rattus norvegicus worked out at 3.66 L/h/kg. Besides, in series [2], the logD is -0.2.

As to `O=S(=O)(Nc1nccs1)c1cc(Cl)c(NC[C@@]23CCCN2C[C@H](F)C3)cc1F`, the logD in [2] came to 1.5.

For `Cc1cnc(NS(=O)(=O)c2cc(Cl)c(NCC34CCCN3CCC4)cc2F)s1`, in the series on Rattus norvegicus, the CL came out at 33.6 L/h/kg. The logD in [2] is 1.1.

In the series with Rattus norvegicus, `Cc1csc(NS(=O)(=O)c2cc(Cl)c(NCC34CCCN3CCC4)cc2F)n1` gave a CL of 4.26 L/h/kg. Moreover, the bioavailability in series [1] amounted to 36%. This compound also yielded a logD in series [2] of 1.1.

For the compound `Cc1nc(NS(=O)(=O)c2cc(Cl)c(NCC34CCCN3CCC4)cc2F)sc1F`, the CL in the series with Rattus norvegicus is 37.8 L/h/kg. In series [2], this compound returned a logD of 1.3.

`O=S(=O)(Nc1cccc(F)n1)c1cc(Cl)c(NCC23CCCN2CCC3)cc1F` registered a CL in the series on Rattus norvegicus of 36.6 L/h/kg. The bioavailability in series [1] came out at 26%. Also, in series [2], the logD is 1.

`O=S(=O)(Nc1nccs1)c1cc(Cl)c(NCC23CCCN2CCC3)cc1F` yielded a concentration in the series with Plasma [7] of 0.42 µM. In addition, the Drug uptake in series [8] came out at 1%; in the series on Brain it was 6%. The solubility kinetic worked out at 159 µM (≈ 68.5 µg/mL) in [3] and 43 µM (≈ 18.5 µg/mL) in series [5]. For the same compound, in series [4], the time to peak (Tmax) was 3 h. This compound also yielded a bioavailability in series [1] of 40%. The logD in series [2] came to 0.7.
